Patent US10858479B2, “Y-type discrete polyethylene glycol derivative and preparation method thereof” (JenKem Technology Co., Ltd. (Beijing), priority 2015, dated 2020)
Where two headings read alike, the source gives them in different places.

How the values were obtained:
[1] = Comparison test of solubility of derivatives in water
Description: 20.0 mg cholesterol derivative of (l) prepared in Example 7 was dispersed in 50 mL water, 5 mL was taken out therefrom and added with 1.5 mL water, the resulting mixture was placed in a 20° C. water bath, and shaken vigorously for 30 s every 5 min.
24.2 mg cholesterol derivative of mEG7-OH prepared in Example 8 was dispersed in 50 mL of water, 5 mL was taken out therefrom and added with 5 mL water, the resulting mixture was shaken vigorously for 30 s every 5 min.
111.0 mg the hexadecanol derivative of (1) prepared in Example 7 was dispersed in 25 μL of water and shaken vigorously for 30 s every 5 min.
112.9 mg the hexadecanol derivative of mEG7-OH prepared in Example 8 was dispersed in 50 μL of water and shaken vigorously for 30 s every 5 min.
101.3 mg the menthol derivative of mEG7-OH prepared in Example 8 was dispersed in 50 μL of water and vigorously shaken for 30 s every 5 min. After 30 min, the solution was turbid; another 50 μL of water was added, the resulting mixture was vigorously shaken for 30 s every 5 min.

[2] = Comparison test of dispersibility of cholesterol and cholesterol derivatives in water; type: physicochemical; settings: 20 mg in 50 mL water, 20° C. water bath, FIG. 7

| solubility [1] [mg/100 g H2O] | solubility ([1]; listed as Hexadecanol) [mg/100 g H2O] | solubility ([1]; listed as Menthol) [mg/100 g H2O] | disperse state in water [2] | solubility ([1]; listed as Cholesterol) [mg/100 g H2O] | Structure (SMILES) |
| --- | --- | --- | --- | --- | --- |
| < 1 | <1 |  |  |  | CCCCCCCCCCCCCCCCO [hexadecanol] |
| < 100 |  | <100 |  |  | CC1CCC(C(C)C)C(O)C1 (centres unmarked) [menthol] |
|  |  |  | white emulsion |  | COCCOCCOCCOCCOCCOCCOCCOC(=O)O[C@H]1CC[C@@]2(C)C(=CC[C@H]3[C@@H]4CC[C@H]([C@H](C)CCCC(C)C)[C@@]4(C)CC[C@@H]32)C1 [cholesterol derivative of mEG7-OH] |
| < 0.2 |  |  | completely insoluble | <0.2 | CC(C)CCC[C@@H](C)[C@H]1CC[C@H]2[C@@H]3CC=C4C[C@@H](O)CC[C@]4(C)[C@H]3CC[C@]12C [cholesterol] |
